Results from US12459954B2, “Crystalline form a of GLP-1 receptor agonist and preparation method therefor” (Hangzhou Zhongmei Huadong Pharmaceutical Co., Ltd., priority 2020, dated 2025).
Structures can show the parent of a compound that is named as a salt.

Assays:
Type in all cases: physicochemical
[1] = Study of stability: chemical stability expressed in the HPLC purity
Description: (§1) The crystal form A of OAD2 was subject to a stability study. The crystal form A was tested stability in H2O, SGF (simulated gastric fluid), FeSSIF (simulated intestinal fluid in the feeding state) and FaSSIF (simulated intestinal fluid in the fasting state). The chemical stability was expressed in the HPLC purity. The crystal form stability was expressed by detecting the change of crystal form by XPRD.

[2] = Hygroscopic weight increment on placement (water absorption); details: for weight increase from absorption of water: after 5 days under certain (experimental) / similar conditions
[3] = Study of stability: chemical stability expressed in the HPLC purity; details: dihydrochloride
[4] = Study of stability: crystal form stability by detecting the change of crystal form by XRPD
Description: X-ray powder dfraction (XRPD): Empyren; test conditions: power 40 kV×250 mA, CuKα radiation; scanning range 3˜40° (2θ); step width 0.02°; scanning speed 5/min; scanning method: continuous scanning.
as §1

[5] = Placed at room temperature and room humidity, 28 d
[6] = Room temperature and room humidity ± 25° C./60% RH, 28 d + 7 d

## CC[C@@H](c1ccccc1)N1Cc2cc3c(cc2C[C@H]1C(=O)N[C@@H](Cc1ccc(-c2ccnc(C)c2C)cc1)C(=O)O)OC[C@H](c1ccc(OCc2ccc(Cl)c(Cl)c2)cc1)O3 [OAD2 dihydrochloride, (S)-2-(3S,8S)-3-(4-(3,4-dichlorobenzyloxy)phenyl-7-((S)-1-phenylpropyl)-2,3,6,7,8,9-hexahydro-[1,4]-dioxino[2,3-g]isoquinolin-8-ylformylamino)-3-(4-(2,3-dimethylpyridin-4-yl)phenyl)propionic acid dihydrochloride, reference compound]
[1]; 25°C/75+5% RH, 5 d
  HPLC purity (area %): 99.07 area %
[2]; dihydrochloride
  weight increase from absorption of water: 8.3%
[2]; listed as OAD2 dihydrochloride salt, dihydrochloride
  weight increase from absorption of water: 8.3%
[2]; listed as dihydrochloride salt of OAD2, dihydrochloride
  moisture absorption (in words): absorbs moisture
[3]; High temperature 60° C., 5 d
  HPLC purity (area %): 98.70 area %
[3]; Initial, 0 d
  HPLC purity (area %): 99.03 area %

## CC[C@@H](c1ccccc1)N1Cc2cc3c(cc2C[C@H]1C(=O)N[C@@H](Cc1ccc(-c2ccnc(C)c2C)cc1)C(=O)O)OC[C@H](c1ccc(OCc2ccc(Cl)c(Cl)c2)cc1)O3 [Crystal form A, (S)-2-(3S,8S)-3-(4-(3,4-dichlorobenzyloxy)phenyl-7-((S)-1-phenylpropyl)-2,3,6,7,8,9-hexahydro-[1,4]-dioxino[2,3-g]isoquinolin-8-ylformylamino)-3-(4-(2,3-dimethylpyridin-4-yl)phenyl)propionic acid]
[1]; 25° C./75 ± 5% RH, 7 d
  HPLC purity (area %): 98.90 area %
[1]; High temperature 60° C., 5 d, listed as Crystal form A (2#)
  HPLC purity (area %): 98.12 area %
[1]; Initial, 0 d, listed as Crystal form A (1#)
  HPLC purity (area %): 98.88 area %
[1]; Initial, 0 d, listed as Crystal form A (2#)
  HPLC purity (area %): 98.13 area %
[1]; [5]
  HPLC purity (area %): 98.69 area %
[1]; [6]
  HPLC purity (area %): 98.67 area %
[1]; overall result of Table 3
  chemical stability (overall finding): good chemical stability
[4]; 25° C./75 ± 5% RH, 7 d
  Change of crystal form: no
[4]; High temperature 60° C., 5 d
  Change of crystal form: no
[4]; Initial, 0 d
  Change of crystal form: no
[4]; [5]
  Change of crystal form: no
[4]; [6]
  Change of crystal form: no
[4]; Successively suspended in SGF/FeSSIF/FaSSIF/water, 1 d
  Change of crystal form: no
[4]; under various conditions
  change of crystal form (overall finding): did not change the crystal form
[2]; listed as OAD2 crystalline Form A
  weight increase from absorption of water: did not gain weight
[2]; listed as crystal form A of OAD2
  weight increase from absorption of water: no measurable amount weight increase
[2]; listed as crystal form A of the free base
  moisture absorption (in words): not easy to absorb moisture
